{"source": "patent US6737441B2", "about": "“Treatment of helicobacter with isothiocyanates” (priority 2000, dated 2004)", "key": {"[1]": {"tested_on": "amoxicillin/clarithromycin/metronidazole - susceptible strains of Helicobacter pylori", "assay": "Bacteriostatic activity (MIC) against susceptible strains", "assay_type": "cell-based", "settings": "for MIC: Helicobacter pylori, read-out: MIC"}, "Helicobacter pylori [2]": {"tested_on": "Helicobacter pylori", "assay": "microbe, parasite or virus in culture"}, "[3]": {"tested_on": "clarithromycin and/or metronidazole - intermediate or resistant strains of Helicobacter pylori", "assay": "Bacteriostatic activity (MIC) against intermediate or resistant strains", "assay_type": "cell-based", "settings": "Helicobacter pylori, read-out: MIC"}, "Helicobacter pylori [4]": {"tested_on": "Helicobacter pylori"}}, "note": "Like-named read-outs stand apart in the source and are kept apart here.", "data": [{"compound": "C[S+]([O-])CCCCN=C=S", "note": "(stereo not drawn) [Sulforaphane, 4-methylsulfinylbutyl isothiocyanate]", "values": [{"measurement": "MIC", "setting": "[1]; H. pylori strain no 1", "result": 2, "unit": "µg/mL"}, {"measurement": "MIC", "setting": "[1]; H. pylori strain no 2", "result": 4, "unit": "µg/mL"}, {"measurement": "MIC", "setting": "[1]; H. pylori strain no 3", "result": 2, "unit": "µg/mL"}, {"measurement": "MIC", "setting": "[1]; H. pylori strain no 4", "result": 4, "unit": "µg/mL"}, {"measurement": "MIC", "setting": "[1]; H. pylori strain no 5", "result": 4, "unit": "µg/mL"}, {"measurement": "MIC", "setting": "[1]; H. pylori strain no 6", "result": 0.06, "unit": "µg/mL"}, {"measurement": "MIC", "setting": "[1]; H. pylori strain no 7", "result": 0.06, "unit": "µg/mL"}, {"measurement": "MIC", "setting": "[1]; H. pylori strain no 8", "result": 0.5, "unit": "µg/mL"}, {"measurement": "MIC", "setting": "[1]; H. pylori strain no 9", "result": 2, "unit": "µg/mL"}, {"measurement": "MIC", "setting": "[1]; H. pylori strain no 10", "result": 0.06, "unit": "µg/mL"}, {"measurement": "MIC", "setting": "[1]; H. pylori strain no 11", "result": 2, "unit": "µg/mL"}, {"measurement": "MIC", "setting": "[1]; H. pylori strain no 12", "result": 4, "unit": "µg/mL"}, {"measurement": "MIC", "setting": "[1]; H. pylori strain no 13", "result": 4, "unit": "µg/mL"}, {"measurement": "MIC", "setting": "[1]; H. pylori strain no 14", "result": 0.06, "unit": "µg/mL"}, {"measurement": "MIC", "setting": "[1]; H. pylori strain no 15", "result": 0.06, "unit": "µg/mL"}, {"measurement": "MIC", "setting": "[1]; H. pylori strain no 16", "result": 1, "unit": "µg/mL"}, {"measurement": "MIC", "setting": "[1]; H. pylori strain no 17", "result": 0.5, "unit": "µg/mL"}, {"measurement": "MIC", "setting": "[1]; H. pylori strain no 18", "result": 0.5, "unit": "µg/mL"}, {"measurement": "MIC", "setting": "[1]; H. pylori strain no 19", "result": 2, "unit": "µg/mL"}, {"measurement": "MIC", "setting": "[1]; H. pylori strain no 20", "result": 0.5, "unit": "µg/mL"}, {"measurement": "MIC", "setting": "[1]; H. pylori strain no 21", "result": 0.5, "unit": "µg/mL"}, {"measurement": "MIC", "setting": "[1]; H. pylori strain no 22", "result": 0.06, "unit": "µg/mL"}, {"measurement": "MIC", "setting": "[1]; H. pylori strain no 23", "result": 0.06, "unit": "µg/mL"}, {"measurement": "MIC", "setting": "[1]; H. pylori strain no 24", "result": 1, "unit": "µg/mL"}, {"measurement": "MIC", "setting": "[1]; H. pylori strain no 25", "result": 0.5, "unit": "µg/mL"}, {"measurement": "MIC", "setting": "[1]; H. pylori strain no 26", "result": 0.5, "unit": "µg/mL"}, {"measurement": "MIC", "setting": "[1]; H. pylori strain no 27", "result": 0.06, "unit": "µg/mL"}, {"measurement": "MIC", "setting": "[1]; H. pylori strain no 28", "result": 0.5, "unit": "µg/mL"}, {"measurement": "MIC", "setting": "[1]; H. pylori strain no 29", "result": 2, "unit": "µg/mL"}, {"measurement": "MIC", "setting": "[1]; H. pylori strain no 30", "result": 0.06, "unit": "µg/mL"}, {"measurement": "MIC", "setting": "[1]; H. pylori strain no 31", "result": 4, "unit": "µg/mL"}, {"measurement": "MIC", "setting": "[1]; H. pylori strain no 32", "result": 2, "unit": "µg/mL"}, {"measurement": "inhibiting the growth of H. pylori compared to traditional antibiotics", "setting": "[1]; versus amoxycillin, clarithromycin and metronidazole, several strains (Tables 1 and 2)", "result": "as effective, if not more effective"}, {"measurement": "MIC", "setting": "Helicobacter pylori [2]; strain HP 1", "result": 2, "unit": "µg/mL"}, {"measurement": "MIC", "setting": "Helicobacter pylori [2]; strain HP 2", "result": 2, "unit": "µg/mL"}, {"measurement": "MIC", "setting": "Helicobacter pylori [2]; strain HP 3", "result": 4, "unit": "µg/mL"}, {"measurement": "MIC", "setting": "Helicobacter pylori [2]; strain HP 4", "result": 0.06, "unit": "µg/mL"}, {"measurement": "MIC", "setting": "[3]; H. pylori strain no 33", "result": 4, "unit": "µg/mL"}, {"measurement": "MIC", "setting": "[3]; H. pylori strain no 34", "result": 0.5, "unit": "µg/mL"}, {"measurement": "MIC", "setting": "[3]; H. pylori strain no 35", "result": 4, "unit": "µg/mL"}, {"measurement": "MIC", "setting": "[3]; H. pylori strain no 36", "result": 4, "unit": "µg/mL"}, {"measurement": "MIC", "setting": "[3]; H. pylori strain no 37", "result": 0.5, "unit": "µg/mL"}, {"measurement": "MIC", "setting": "[3]; H. pylori strain no 38", "result": 2, "unit": "µg/mL"}, {"measurement": "MIC", "setting": "[3]; H. pylori strain no 39", "result": 0.5, "unit": "µg/mL"}, {"measurement": "MIC", "setting": "[3]; H. pylori strain no 40", "result": 4, "unit": "µg/mL"}, {"measurement": "MIC", "setting": "[3]; H. pylori strain no 41", "result": 0.125, "unit": "µg/mL"}, {"measurement": "MIC", "setting": "[3]; H. pylori strain no 42", "result": 4, "unit": "µg/mL"}, {"measurement": "MIC", "setting": "[3]; H. pylori strain no 43", "result": 8, "unit": "µg/mL"}, {"measurement": "MIC", "setting": "[3]; H. pylori strain no 44", "result": 0.5, "unit": "µg/mL"}, {"measurement": "MIC", "setting": "[3]; H. pylori strain no 45", "result": 1, "unit": "µg/mL"}, {"measurement": "MIC", "setting": "[3]; H. pylori strain no 46", "result": 2, "unit": "µg/mL"}, {"measurement": "MIC", "setting": "[3]; H. pylori strain no 47", "result": 4, "unit": "µg/mL"}, {"measurement": "Time (h) at which 99.9% intracellular killing was observed", "setting": "Helicobacter pylori [4]; HP 1, 1 × MIC, tested in triplicate", "result": 8, "unit": "h"}, {"measurement": "Time (h) at which 99.9% intracellular killing was observed", "setting": "Helicobacter pylori [4]; HP 1, 5 × MIC, tested in triplicate", "result": 8, "unit": "h"}, {"measurement": "Time (h) at which 99.9% intracellular killing was observed", "setting": "Helicobacter pylori [4]; HP 1, 10 × MIC, tested in triplicate", "result": 8, "unit": "h"}, {"measurement": "Time (h) at which 99.9% intracellular killing was observed", "setting": "Helicobacter pylori [4]; HP 1, 20 × MIC, tested in triplicate", "result": 8, "unit": "h"}, {"measurement": "Actual reductions (log10CFU)", "setting": "Helicobacter pylori [4]; HP 2, 2 h, 1x MIC", "result": 0, "unit": "log10CFU"}, {"measurement": "Actual reductions (log10CFU)", "setting": "Helicobacter pylori [4]; HP 2, 2 h, 5x MIC", "result": 0, "unit": "log10CFU"}, {"measurement": "Actual reductions (log10CFU)", "setting": "Helicobacter pylori [4]; HP 2, 2 h, 10x MIC", "result": 0, "unit": "log10CFU"}, {"measurement": "Actual reductions (log10CFU)", "setting": "Helicobacter pylori [4]; HP 2, 2 h, 20x MIC", "result": "−0.12", "unit": "log10CFU"}, {"measurement": "Actual reductions (log10CFU)", "setting": "Helicobacter pylori [4]; HP 2, 4 h, 1x MIC", "result": "−0.79", "unit": "log10CFU"}, {"measurement": "Actual reductions (log10CFU)", "setting": "Helicobacter pylori [4]; HP 2, 4 h, 5x MIC", "result": "−0.90", "unit": "log10CFU"}, {"measurement": "Actual reductions (log10CFU)", "setting": "Helicobacter pylori [4]; HP 2, 4 h, 10x MIC", "result": "−1.17", "unit": "log10CFU"}, {"measurement": "Actual reductions (log10CFU)", "setting": "Helicobacter pylori [4]; HP 2, 4 h, 20x MIC", "result": "−1.30", "unit": "log10CFU"}, {"measurement": "Actual reductions (log10CFU)", "setting": "Helicobacter pylori [4]; HP 2, 8 h, 1x MIC", "result": "−0.90", "unit": "log10CFU"}, {"measurement": "Actual reductions (log10CFU)", "setting": "Helicobacter pylori [4]; HP 2, 8 h, 5x MIC", "result": "−0.90", "unit": "log10CFU"}, {"measurement": "Actual reductions (log10CFU)", "setting": "Helicobacter pylori [4]; HP 2, 8 h, 10x MIC", "result": "−1.30", "unit": "log10CFU"}, {"measurement": "Actual reductions (log10CFU)", "setting": "Helicobacter pylori [4]; HP 2, 8 h, 20x MIC", "result": "−1.40", "unit": "log10CFU"}, {"measurement": "Actual reductions (log10CFU)", "setting": "Helicobacter pylori [4]; HP 2, 24 h, 1x MIC", "result": "−1.18", "unit": "log10CFU"}, {"measurement": "Actual reductions (log10CFU)", "setting": "Helicobacter pylori [4]; HP 2, 24 h, 5x MIC", "result": "−1.20", "unit": "log10CFU"}, {"measurement": "Actual reductions (log10CFU)", "setting": "Helicobacter pylori [4]; HP 2, 24 h, 10x MIC", "result": "−1.34", "unit": "log10CFU"}, {"measurement": "Actual reductions (log10CFU)", "setting": "Helicobacter pylori [4]; HP 2, 24 h, 20x MIC", "result": "−1.40", "unit": "log10CFU"}, {"measurement": "Actual reductions (log10CFU)", "setting": "Helicobacter pylori [4]; HP 2, 48 h, 1x MIC", "result": "−1.20", "unit": "log10CFU"}, {"measurement": "Actual reductions (log10CFU)", "setting": "Helicobacter pylori [4]; HP 2, 48 h, 5x MIC", "result": "−1.20", "unit": "log10CFU"}, {"measurement": "Actual reductions (log10CFU)", "setting": "Helicobacter pylori [4]; HP 2, 48 h, 10x MIC", "result": "−1.40", "unit": "log10CFU"}, {"measurement": "Actual reductions (log10CFU)", "setting": "Helicobacter pylori [4]; HP 2, 48 h, 20x MIC", "result": "−1.40", "unit": "log10CFU"}, {"measurement": "Time (h) at which 99.9% intracellular killing was observed", "setting": "Helicobacter pylori [4]; HP 3, 1 × MIC, tested in triplicate", "result": 4, "unit": "h"}, {"measurement": "Time (h) at which 99.9% intracellular killing was observed", "setting": "Helicobacter pylori [4]; HP 3, 5 × MIC, tested in triplicate", "result": 4, "unit": "h"}, {"measurement": "Time (h) at which 99.9% intracellular killing was observed", "setting": "Helicobacter pylori [4]; HP 3, 10 × MIC, tested in triplicate", "result": 4, "unit": "h"}, {"measurement": "Time (h) at which 99.9% intracellular killing was observed", "setting": "Helicobacter pylori [4]; HP 3, 20 × MIC, tested in triplicate", "result": 2, "unit": "h"}, {"measurement": "Time (h) at which 99.9% intracellular killing was observed", "setting": "Helicobacter pylori [4]; HP 4, 1 × MIC, tested in duplicate, not definitive", "result": 8, "unit": "h"}, {"measurement": "Time (h) at which 99.9% intracellular killing was observed", "setting": "Helicobacter pylori [4]; HP 4, 5 × MIC, tested in duplicate, not definitive", "result": 8, "unit": "h"}, {"measurement": "Time (h) at which 99.9% intracellular killing was observed", "setting": "Helicobacter pylori [4]; HP 4, 10 × MIC, tested in duplicate, not definitive", "result": 8, "unit": "h"}, {"measurement": "Time (h) at which 99.9% intracellular killing was observed", "setting": "Helicobacter pylori [4]; HP 4, 20 × MIC, tested in duplicate, not definitive", "result": 4, "unit": "h"}]}]}
